# Results reported in patent US5641762A, “Bone targeted inhibitors of carbonic anhydrase” (Research Corporation Technologies, Inc., priority 1994, dated 1997).
# Read-outs that look alike come from different tables or passages of the source.
# B1: PTH: parathyroid hormone (protein, UniProt P01270 32-115, looked up)
# Parathyroid hormone: SVSEIQLMHNLGKHLNSMERVEWLRKKLQDVHNFVALGAPLAPRDAGSQRPRKKEDNVLVESHEKSLGEADKADVNVLTKAKSQ
# modifications: Parathyroid hormone
# Tests used:
# physchem = conditions: for chromatographic logP: reverse phase hplc lc-18-db, pH 2
# Method: Chromatographic characterization was accomplished using hydroxyapetite (HA) chromatography, silica gel thin layer chromatography and high performance reverse phase liquid chromatography (HPLC) with the following characteristics:
# Column: LC-18-DB (Supelco)/25 cm/5 um particles.
# Mobile phase: 9% tetrahydrofuran/9% CH3 CN/1% CH3 OH/81% 5 mM sodium phosphate, pH=2
# Detection: UV-visible absorbance 210-500 nm (photo-diode array scanning)
# This mode of analysis served simultaneously as a qualitative analytic procedure (full UV-vis spectrum) as well as providing a quantitative estimate of drug concentration.
# Chromatographic data was obtained using the HPLC system described.
# [1] = Binding to hydroxyapatite; conditions: for bound to hydroxyapatite: 10^-5 M, 30 minute incubation (FIG. 1)
# Method: A--Binding to Hydroxyapatite
# For these studies, 10^-5 M aqueous solutions of the various test agents were added to a slurry of hydroxyapatite (HA), the principle mineral constituent of bone. After a 30 minute incubation, HA was separated by centrifugation and treated with 1.0M phosphate buffer (pH=7) or 2.0M phosphate buffer (pH=7). Percentage of total drug bound and eluted was determined using UV-visible spectrophotometry.
# 1. Binding to hydroxyapatite.
# carbonic anhydrase = assay: Carbonic anhydrase inhibition (modified micromethod, CO2/bicarbonate colour change time); format: biochemical; conditions: for Potency as CA inhibitor: relative to acetazolamide = 100, Table 5; for carbonic anhydrase inhibition: before hydrolysis, final assay concentration 5×10^-6 M (FIG. 2)
# Method: B--Carbonic Anhydrase Inhibition
# A modification of the micromethod of Maven, J. Pharmacol. Exp. Ther. 130: 26-29 (1960) was used to assess carbonic anhydrase activity and inhibition. In essence, a bicarbonate solution was incubated at 0° C. in a vessel which was constantly bubbled with CO2. A pH indicator (phensulfophthalein) was included. The dependent variable was the amount of time required to achieve color change (addition of bicarbonate is defined as time zero). Addition of carbonic anhydase decreased reaction time. Further addition of enzyme inhibitors extended reaction time back to control values.
# All are tested before and after being subjected to hydrolyric conditions with the final assay concentration being 5×10^-6 M. For these experiments, the dependent variable was the amount of time required for acidification of a CO2 /bicarbonate buffer system to a defined endpoint. […] Finally, test drugs were added to enzyme-containing reaction mixtures, and any increase in reaction time was indicative of enzyme inhibition.
# [2] = system: rat calvaria (PTH-stimulated calcium release); assay: In vitro bone organ culture, PTH-stimulated calcium release from calvaria; format: cell-based; conditions: for PTH-stimulated calcium release from calvaria: 10^-5 M (FIG. 3)
# Method: Essentially, fetal or neonatal rat calvaria were excised and cultured in serum supplemented BGJb medium (GIBCO) containing HEPES buffer (hydroxyethylpiperazine-ethanesulfonate), penicillin and streptomycin. Bone samples were individually incubated in sterile multi-well plates at 37° C./100% relative humidity/95:5 air:CO2. If appropriate, bone may be radiolabeled by injection of mothers with ^45 CACl2 or pups with tritiated proline.
# 1. In vitro inhibition of bone resorption. Rat calvaria were cultured as described. Some cultures include the addition of parathyroid hormone (PTH) in the presence and absence of test compounds (10^-5 M).
# [3] = pH 7.6
# Solubility pH 7.6 = format: physicochemical
# [4] = cited from earlier work; for acidosis: systemic / metabolic acidosis
# [5] = system: PTH-induced resorption of bone in culture; conditions: cited from earlier work
# [6] = kidney intact animals; cited from earlier work
# [7] = system: PTH-induced bone resorption; assay: In vivo Induced Secondary Hyperparathyroid Rat (ISHR); conditions: for Blood Calcium: i.p. 24 h before nephrectomy, bled 4 h post nephrectomy, control 12.2 ± 0.4, prenephrectomy 10.1 ± 0.3, ** P ≤ 0.05, preliminary; for effect on developing hypercalcemia: given 24 hours prior to nephrectomy
# Method: 1. The Induced Secondary Hyperparathyroid Rat
# In order to test the biological activity of these substances, test compounds were injected intraperitoneally into 100 gram female rats. Twenty-four hours later the animals were subjected to bilateral nephrectomy. Animals were bled 4 hours post nephrectomy. […] The resulting decline in the concentration of ionized calcium in the blood served as a stimulus for the release of PTH. In animals with functional parathyroid glands, a secondary hyperparathyroidism developed with an ensuing hypercalcemia due to PTH-induced bone resorption. Agents which inhibited bone resorption attenuate this hypercalcemic response.
# [8] = system: PTH-induced bone resorption; conditions: literature (Waite et al. 1970); cited from earlier work
# [9] = system: response to PTH (plasma calcium); conditions: ISHR without parathyroids; cited from earlier work
# [10] = system: PTH-stimulated calcium release from bone; assay: In vivo classical endocrine ablation/replacement model (PTH given to parathyroidectomized rats); parameters: species or system rat; conditions: PTH group
# Method: Parathyroid hormone was administered to parathyroidectomized rats who received no food for 12 hours before PTH injection, to minimize gut calcium absorption. In an attempt to attenuate the developing increase in plasma calcium, drug was administered 24 hours prior to PTH injection.
# Parathyroid hormone was administered to parathyroidectomized rats who had received no food for 12 hours before PTH injection, to minimize gut calcium absorption.
molecule,measurement,setting,value
"CCOC(=O)CCCCC(=O)NS(=O)(=O)c1nnc(NC(C)=O)s1 [AAOEt, acetazolamide-adipate-ethyl ester]",lipophilicity relative to parent compounds,physchem; HPLC,"more lipophilic than is its parent, acetazolamide"
same,chromatographic logP,physchem,0.238
same,bound to hydroxyapatite,[1],3%
same,carbonic anhydrase inhibition after hydrolytic conditions,"carbonic anhydrase; following incubation under hydrolytic conditions, 5×10^-6 M (FIG. 2)",inhibited carbonic anhydrase activity
NS(=O)(=O)c1nnc(NC(=O)CCC(=O)NCCCCCC(O)(P(=O)(O)O)P(=O)(O)O)s1 [PAA],water solubility relative to parent thiadiazolesulfonamide,physchem,more water soluble than the parent thiadiazolesulfonamide
same,Ki,carbonic anhydrase; read-out: KI as carbonic anhydrase inhibitor,120 nM
CN(C)C1C(=O)C(C(N)=O)=C(O)C2(O)C(=O)C3=C(O)c4c(OC(CO)COC(=O)Oc5ccc6nc(S(N)(=O)=O)sc6c5)cccc4C(C)(O)C3CC12 (stereo not shown) [TAE-2],PTH-stimulated bone resorption / calcium release,[2]; calvaria in culture (FIGS. 8-10),attenuates PTH stimulated calcium release from calvaria in culture (FIG. 9) in a concentration dependent fashion
"Nc1nnc(S(N)(=O)=O)s1 [WP-061786, 2-amino-1,3,4-thiadiazole-5-sulfonamide]",ether:buffer partition coefficient,[3],0.15
same,solubility,Solubility pH 7.6,28.4 mM
same,chromatographic logP,physchem,-0.409
same,% Bound to Hydroxyapatite,[1],0%
same,Potency as CA inhibitor,carbonic anhydrase,20%
CC(=O)Nc1nnc(S(N)(=O)=O)s1 [acetazolamide],change in plasma calcium concentration,[4]; normal animals,no change in plasma calcium concentration is observed
same,acidosis,[4],causes a systemic acidosis
same,acidosis,[4]; listed as Acetazolamide,produces a metabolic acidosis
same,solubility,Solubility pH 7.6,6.7 mM
same,inhibition of PTH-induced resorption,[5]; tissue culture (Minkin and Jennings),inhibition of PTH-induced resorption
same,PTH-stimulated calcium release from calvaria,[2],inhibited
same,half-life,[6],approximately 50 minutes
same,Blood Calcium,[7]; 0.2 mol/kg as printed,12.6 ± 0.2 mg/dL
same,effect on developing hypercalcemia,[7],not effective
same,bound to hydroxyapatite,[1],19%
same,inhibition of the increase in total plasma calcium in ISHR,[8],completely inhibits this response
same,inhibition of response to administered PTH,[9],abolish it
same,carbonic anhydrase inhibition,carbonic anhydrase,inhibits carbonic anhydrase activity
same,Potency as CA inhibitor,carbonic anhydrase,100%
CN(C)C1C(=O)C(C(N)=O)=C(O)C2(O)C(=O)C3=C(O)c4c(O)cccc4C(C)(O)C3CC12 (stereo not shown) [tetracycline],inhibition of PTH in vitro,[5]; at high concentrations,typically inhibits PTH in vitro
same,PTH-stimulated calcium release from calvaria,[2],without effect
same,effect on developing hypercalcemia,[7],does not appear to be effective
same,Blood Calcium,[7],11.8 ± 0.4 mg/dL
same,bound to hydroxyapatite,[1],90%
same,% Bound to Hydroxyapatite,[1]; Table 6,85%
same,binding to / elution from hydroxyapatite,"[1]; result in words, sodium phosphate buffer, pH 7",eluted with 1.0M sodium phosphate
same,carbonic anhydrase inhibition,carbonic anhydrase,without effect
B1,"Blood Calcium, Before PTH",[10],5.2 ± 0.3 mg/dL
same,"Blood Calcium, 6 hours post-treatment","[10]; control 5.5 ± 0.2, ** p < 0.05 vs control",7.2 ± 0.2 mg/dL
same,net release of calcium from cultured bone,[2]; treatment with PTH,significant stimulation
